The nature of data set [1]: Critical aggregation concentration, thioflavin T assay. The conditions noted are these: PBS pH 7.4. The class given is physicochemical. The procedure: Critical aggregation concentration (CAC) of TPGnRH was determined using pyrene ^1-4 and thioflavin T ^5, 6. The peptide solutions (3.5-700 μM) were prepared in phosphate-buffered saline (PBS, 0.01 M, pH 7.4) either by a dilution of a stock solution at 700 μM or solutions prepared at the required concentration. In the pyrene assay, pyrene was dissolved in methanol at 250 μM, dispersed into a black 96-well plate, and methanol was evaporated overnight. TPGnRH solutions were added to pyrene and incubated at 37° C. for 24 hours under stirring. Fluorescence spectra was recorded λex at 334 nm. For the thioflavin T assay, peptide solutions were added to freshly prepared thioflavin Tat 50 μM. All peptide samples were incubated during 5 minutes at room temperature and fluorescence was measured at λex at 450 nm and λem at 482 nm.
PAX:TPGnRH formulation at a molar ratio 1:7.36 was diluted in PBS (0.01 M, pH 7.4) from 22,000 to 7 μM of TPGnRH. Diluted formulations (20 μL) were added to 80 μL of Thioflavin T at 50 μM, incubated for 5 minutes at room temperature, and fluorescence was measured at λex 450 and λem 482 in a black 96-well plate using the Synergy H1 Microplate Reader (BioteK, Vermont, USA).

Data set [2] relates to U-87 MG cells. Briefly: Cell cycle (propidium iodide flow cytometry). Type of data set: cell-based, human. On the procedure:
(§1) In vitro antitumour effects of TPGnRH and PAX-loaded TPGnRH were assessed in U-87 MG cells, UP-007, UP-029, SEBTA-023 MDA-MD-231 [triple negative (ER^−, PR—, HER2^−) breast cancer cell line] and SK-OV-3 (human ovarian carcinoma with a low expression of GnRH-R). Cells were seeded at 1,400 cells/cm^2 and allowed to attach and grow for 3 days. In experiments with TPGnRH nanofibers alone (to obtain the IC50 value in each cell line), cells were treated with medium supplemented with the peptide solutions in PBS (0.7 to 700 μM) to achieve a final concentration of 0.07 to 70 μM per well. Media was replaced by fresh media every two days for 6 days. […] On day 4, PAX-loaded TPGnRH nanofibers containing 1 nM of PAX and 7 or 35 μM of TPGnRH were added and the effect on cell viability, proliferation, cell cycle, and apoptosis was assessed on day 6. Only for the MDA-MB-231 cells, on day 4, PAX-loaded TPGnRH nanofibers containing 10 nM of PAX and 7 or 35 μM of TPGnRH were added and the effect on cell viability, proliferation, cell cycle, and apoptosis was also assessed on day 6. […] Cell metabolic activity was measured using MTT assay. […] Afterwards, dimethyl sulfoxide (100 μL) was added to the wells to dissolve the formazan crystals and the absorbance was measured at 570 and 690 nm. […] Cells were incubated with BrdU for 24 hours before the end of the pre-determined time-points. […]

Data set [3] deals with U-87 MG cells. Briefly: Apoptosis (Annexin V-FITC). The class given is cell-based, human. The conditions noted are these: >7 μM, every two days, 6 days of treatment. The procedure:
as §1

The nature of the next data set: in vivo. To be noted: male, BALB/c, mouse, iv, 35 mg/kg.
Data set [4] can be described thus: In vivo pharmacokinetic study, intravenous. To be noted: mice.
Procedure: At 5 and 60 minutes, mice were killed and the blood and brain were harvested. Blood samples (0.5-0.7 mL per mouse) were collected into evacuated, sterile, spray coated with tripotassium ethylenediamine tetraacetic acid (3.6 mg), medical grade PET tubes. […] Brain was weighted and homogenised with ice-cold PBS (1×, 7.4) using a 3 mL glass homogeniser. Plasma (100 μL) and brain homogenate (˜800 μL) were extracted with equal volumes of ice-cold acetonitrile three times and samples were dried using a centrifugal concentrator (SPD1010 SpeedVac System, ThermoSavant, Renfrewshire, United Kingdom) under vacuum over 2 hours and 4 hours respectively. Samples were orbitally agitated using a SciQuip Microplate Shaker attached to a tube adapter for 1.5-2 mL tubes (10 mm) for 10 minutes prior being centrifuged at 8,000 rpm for 5 minutes. Supernatants were pipetted in 0.2 mL amber vials and was quantified by reverse phase-HPLC. Analysis was conducted on Onyx Monolithic C18 column (4.6 mm×10+100 mm, 5 μm pore size) with a gradient method (Table 13) using an Agilent 1200 Series HPLC system (Agilent Technologies, Cheadle, UK). […] Injection volume was 40 μL, and the detection was performed at 220 nm and 280 nm.

Regarding `CCCCCCCCCCCCCCCC(=O)Oc1ccc(C[C@H](NC(=O)[C@H](CO)NC(=O)[C@H](Cc2c[nH]c3ccccc23)NC(=O)[C@H](Cc2c[nH]cn2)NC(=O)[C@@H](N)CCC(=O)O)C(=O)NCC(=O)N[C@@H](CC(C)C)C(=O)N[C@@H](CCCNC(=N)N)C(=O)N2CCC[C@H]2C(=O)NCC(N)=O)cc1` [TPGnRH, Tyrosine (O-Palmitoyl)-Glu-GnRH], in data set [1], the “minimal CAC (self-assembly into long-axial nanofibers)” value worked out at 135 µM. Further, in the data set on U-87 MG cells [2] (>7 μM, every two days, 6 days of treatment), the “effect on cell cycle” value was “cell cycle arrest at the G2/M phase”. Also, the “percentage of cells at G2/M” value in the data set on U-87 MG cells [2] (day 6, TPGnRH alone at 35 μM or TPGnRH 4 days then one dose of PAX-loaded TPGnRH) is reported as 21.81±3.98%. In addition, the effect on apoptosis result in the data set with U-87 MG cells [3] is listed as “trigger apoptosis”. In the data set “in vivo” (brain), this compound yielded a tissue level at time at 5 min of 3080 ± 1010 ng/g and a tissue level at time at 1 h of 3470 ± 80 ng/g. In the data set “in vivo” (plasma), this compound yielded a level at 5 min of 545 ± 342 µg/mL and a level at 1 h of 45.6 ± 10.1 µg/mL. Moreover, the tolerability result in data set [4] (intravenous 35 mg kg^−1, no immediate signs of toxicity, no gross alterations in liver, spleen, lungs, kidneys) was “well tolerated”. Also, the dose in blood in data set [4] (intravenous, after 1 hour) is reported as ~6 % of dose.

For the origin of these results see patent US20210038730A1, “PEPTIDE NANOFIBERS” (UNIVERSITY OF PORTSMOUTH HIGHER EDUCATION CORPORATION, priority 2018, published 2021).
